Laboratory results from US11434204B2, “Method for producing a polymorphic form of 3-[5-amino-4-(3-cyanobenzoyl)-pyrazol-1-yl]-N-cyclopropyl-4-methylbenzamide” (MEREO BIOPHARMA 1 LIMITED, priority 2016, dated 2022).

Key:
Type in all cases: physicochemical
[1] = Final polymorph after holding in different solvents at different temperatures
Procedure: Thus, preferably the solution of 3-[5-amino-4-(3-cyanobenzoyl)-pyrazol-1-yl]-N-cyclopropyl-4-methylbenzamide is not exposed to temperatures of greater than 70° C. for more than 24 hours, preferably not more than 12 hours, preferably not more than 6 hours.
Thus, it can be seen that at the higher temperatures of 70 and 80° C., conversion to Form B is effected, or a mixture of Form A and Form B are produced, particularly over longer periods of time. It can also be seen that the hydrate is formed when water is included in the solvent.

[2] = Variable temperature XRPD of Form A
Procedure: The sample was placed in Anton-Paar TTK 450 chamber at 25° C. The temperature was controlled in-situ through the measurement files: p2853-vt, LRP-1301-39-01.dql, LRP-1301-42-01.dql, LRP-1301-42-02.dql. The sample was heated from 25° C. to 200° C. at 1° C./min. XRPD data were collected from 30° C. to 200° C. every 10° C. Approximately 40 mg of the sample was placed in a Ni-coated sample holder under ambient conditions. The sample was loaded at 25° C.
At 200° C., changes (shifts) in peak position in the high 2-theta region were observed. This may be attributed to the thermal expansion effect.

[3] = Hygroscopicity (statement, method not given)

SMILES: Cc1ccc(C(=O)NC2CC2)cc1-n1ncc(C(=O)c2cccc(C#N)c2)c1N [3-[5-amino-4-(3-cyanobenzoyl)-pyrazol-1-yl]-N-cyclopropyl-4-methylbenzamide]
- Final polymorph ([1]; 60° C., DMAC/H2O = 1/1, 1 day): hydrate
- Final polymorph ([1]; 60° C., H2O, 1 day): hydrate
- Final polymorph ([1]; 70° C., EtOH, 3 days): A + B
- Final polymorph ([1]; 70° C., n-PrOH, 3 days): A + B

SMILES: Cc1ccc(C(=O)NC2CC2)cc1-n1ncc(C(=O)c2cccc(C#N)c2)c1N [Form A, 3-[5-amino-4-(3-cyanobenzoyl)-pyrazol-1-yl]-N-cyclopropyl-4-methylbenzamide]
- Temperature above which Form A converted to Form B on heating ([2]; variable temperature XRPD, heated from 25° C. to 200° C. at 1° C./min): above 100 °C
- Hygroscopicity [3]: non-hygroscopic

SMILES: Cc1ccc(C(=O)NC2CC2)cc1-n1ncc(C(=O)c2cccc(C#N)c2)c1N [Form B, 3-[5-amino-4-(3-cyanobenzoyl)-pyrazol-1-yl]-N-cyclopropyl-4-methylbenzamide]
- Solid form by XRPD after cooling to room temperature ([2]; after heating to 200° C.): remained unchanged
